Results taken from article PMC7395068, “The evolution of strategies to minimise the risk of human drug-induced liver injury (DILI) in drug discovery and development” (Archives of Toxicology, 2020).
Like-named read-outs stand apart in the source and are kept apart here.

Key:
[1] = cited from earlier work; for DILI +VE (5-8), DILI -VE (-4) / DILI severity category: ref Chen 2016
[2] = tested on: HepG2 cells; conditions: In vitro Assay; ref Tolosa 2012; cited from earlier work
[3] = tested on: human hepatocytes; conditions: In vitro Assay; ref Xu 2008; cited from earlier work
[4] = tested on: PHH; conditions: cited from earlier work; for PHH ATP <100uM: In vitro Assay, ref Proctor 2017
[5] = tested on: hLiMTs; conditions: cited from earlier work; for hLiMTs ATP <100uM: In vitro Assay, ref Proctor 2017
[6] = tested on: PHH spheroids; conditions: In vitro Assay; ref Vorrink 2018; cited from earlier work
[7] = tested on: HepG2 C3A spheroid, BSEP, Glu/Gal in HepG2 cells, bioactivation; conditions: cited from earlier work; for Bayesian Machine Learning: In vitro Assay, ref Williams 2019
[8] = cited from earlier work
[9] = ref Chen 2011; cited from earlier work
[10] = read-out: Human plasma Cmax; total plasma Cmax.tot, median of 9 literature references; cited from earlier work
[11] = tested on: hLiMTs; experiment: Combined HCI (HCS) and cellular ATP 3D assay in hLiMTs; conditions: Microtissue model structural based (HCI); combined HCS and ATP, MEC < 25 × Cmax.tot cut-off
Method: 3D spheroid models consisting of either primary human hepatocytes with non-parenchymal cells (hLiMT’s) or HepaRG cells (HepaRG spheroids) were assessed for size (MS), oxidative stress (OS), MMP, mitochondrial mass (MM), GSH and cellular ATP content following drug exposure. Fluorescent images are acquired using the confocal mode of an ArrayScan™ XTI HCI reader (ThermoScientific) following which cellular ATP was measured using 3D CellTiter-Glo (Promega).

[12] = tested on: HepaRG spheroids; experiment: Combined HCI (HCS) and cellular ATP 3D assay in HepaRG spheroids; conditions: Microtissue model structural based (HCI); combined HCS and ATP, MEC < 25 × Cmax.tot cut-off
[13] = tested on: HepG2 cells; conditions: In vitro Assay; ref O'Brien 2006; cited from earlier work
[14] = tested on: HepG2 cells; conditions: In vitro Assay; ref Persson 2013; cited from earlier work
[15] = tested on: THLE or HepG2 cells, isolated mitochondria, BSEP; conditions: In vitro Assay; ref Aleo 2019; cited from earlier work
[16] = tested on: HepG2 cells, primary human hepatocytes; conditions: In vitro Assay; ref Garside 2014; cited from earlier work

Cc1ccccc1C(OCCN(C)C)c1ccccc1 (stereo not drawn) [orphenadrine]
+VE: Structural based (HCI) [2] | In vivo DILI ([8]; ref Tolosa 2012)
-VE: DILI +VE (5-8), DILI -VE (-4) [1] | Structural based (HCI) [3] | PHH ATP <100uM [4] | hLiMTs ATP <100uM [5] | hLiMTs ATP <20 x Cmax [6] | Bayesian Machine Learning [7] | In vivo DILI ([8]; […]) | In vivo DILI ([8]; ref Proctor 2017) | In vivo DILI ([8]; ref Vorrink 2018) | In vivo DILI ([8]; ref Williams 2019) | In vivo DILI ([8]; ref Xu 2008)
vNo-DILI-Concern: DILI severity category [1]

O=C1NC(=O)C(c2ccccc2)(c2ccccc2)N1 [phenytoin]
-VE: hLiMTs ATP <20 x Cmax [6]
+VE: DILI +VE (5-8), DILI -VE (-4) [1] | Structural based (HCI) [2] | Structural based (HCI) [3] | In vivo DILI ([8]; […]) | In vivo DILI ([8]; ref Tolosa 2012) | In vivo DILI ([8]; ref Vorrink 2018) | In vivo DILI ([8]; ref Xu 2008)
3: DILI Score (FDA) (1-8) [9]
vMost-DILI-Concern: DILI severity category [1]

CC(C)[N+](C)(CCOC(=O)C1c2ccccc2Oc2ccccc21)C(C)C [propantheline bromide]
-VE: PHH/100xCmax, Proctor (2017) ([4]; 2D PHH, ATP, IC50 < 100 × Cmax.tot, ref Proctor et al. 2017) | PHH/100uM, Proctor (2017) ([4]; 2D PHH, ATP, IC50 threshold 100 µM, ref Proctor et al. 2017) | hLiMTs/100xCmax, Proctor (2017) ([5]; hLiMTs, ATP, IC50 < 100 × Cmax.tot, ref Proctor et al. 2017) | hLiMTs/100uM, Proctor (2017) ([5]; hLiMTs, ATP, IC50 threshold 100 µM, ref Proctor et al. 2017) | Bayesian Machine Learning DILI prediction, Williams (2019) ([7]; Bayesian modeling, ref Williams et al. 2019) | DILI prediction hLiMTs (HCS-MEC) [11] | DILI prediction HepaRG spheroids (HCS-MEC) [12]
1: Assigned DILI category ([8]; Chen et al. 2016 or literature alignment, ref Chen et al. 2016)
No: DILI severity category (Chen et al. [2016]) ([1]; LTKB DILIrank category, ref Chen et al. 2016) | DILI severity category (Chen 2016) ([1]; human DILI classification, LTKB DILIrank, ref Chen et al. 2016)
440 nM: Cmax [10]

Cc1cn([C@H]2C=C[C@@H](CO)O2)c(=O)[nH]c1=O [stavudine]
vMost-DILI-Concern: DILI severity category [1]
-VE: Structural based (HCI) [13] | Cluser analysis [14] | Structural based (HCI) [2] | Structural based (HCI) [3] | Partition Hybrid HRM Score [15] | Ro2 Hybrid HRM Score [15] | PHH ATP <100uM [4] | hLiMTs ATP <100uM [5] | hLiMTs ATP <20 x Cmax [6] | Cluster 1-6 +VE Assay [16]
+VE: DILI +VE (5-8), DILI -VE (-4) [1] | Structural based (HCI) [14] | Bayesian Machine Learning [7] | In vivo DILI ([8]; […]) | In vivo DILI ([8]; ref Aleo 2019) | In vivo DILI ([8]; ref Garside 2014) | In vivo DILI ([8]; ref O'Brien 2006) | In vivo DILI ([8]; ref Persson 2013) | In vivo DILI ([8]; ref Proctor 2017) | In vivo DILI ([8]; ref Tolosa 2012) | In vivo DILI ([8]; ref Vorrink 2018) | In vivo DILI ([8]; ref Williams 2019) | In vivo DILI ([8]; ref Xu 2008)
8: DILI Score (FDA) (1-8) [9]
